Source: patent US10697020B2, “MicroRNA-129 as a biomarker for colorectal cancer” (THE RESEARCH FOUNDATION FOR THE STATE UNIVERSITY OF NEW YORK, priority 2013, dated 2020)

Legend:
3′-UTR of BCL2 mRNA = experiment: Luciferase assay, pMIR-REPORT-3′-UTR-BCL2 in HCT116 cells; assay type: cell-based, human; conditions: 10 nM, 24 h, normalized to negative miRNA
Method: The predicted miR-129 binding sequence (wild-type, underlined) or a mismatch sequence (mutant, italic underlined) in the 3′UTR of Bcl2 mRNA were synthesized with SpeI and PmeI restriction site overhangs (Invitrogen). After annealing, double strand oligonucleotides were inserted into the pMIR-REPORT plasmid (Invitrogen), downstream of the firefly luciferase reporter. The sequences of these synthesized oligonucleotides are:
Twenty-four hours before transfection, 1.5×10^4 cells were plated in 96-well plate. 10 nM of miR-129 or negative miRNA was transfected into cells together with 100 ng of pMIR-REPORT-3′-UTR-BCL2 (wild-type or mutant) and 1 ng of Renilla luciferase plasmid pRL-SV40 (Promega, Madison, Wis., USA) by DharmaFect Duo (Dharmacon, Lafayette, Colo., USA) following the manufacturer's protocol. Luciferase assay was performed 24 hour after transfection by dual-luciferase reporter assay system (Promega). For each sample, firefly luciferase activity was normalized to Renilla luciferase activity and the inhibition by miR-129 was normalized to the control miRNA.

HCT116 cells = experiment: Cell proliferation assay (WST-1), HCT116; assay type: cell-based, human; conditions: day 5
Method: (§1) HCT116, RKO and SW480 cells were plated in 6-well plates at 2×10^5, 1×10^5 and 1×10^5 per well, respectively. Twenty-four hours after plating, 100 nM of miR-129 precursor (Ambion, Carlsbad, Calif., USA) or siRNA against BCL2 (Dharmacon, Lafayette, Colo., USA) were transfected to the cells with oligofectamine (Invitrogen, Carlsbad, Calif., USA) in accordance with the manufacturer's protocol. Negative miRNA (Ambion) was also transfected as a negative control.
Twenty-four hours after transfection, cells were seeded in 96-well plates at a density of 2000 cells per well. The cell proliferation assay was performed on days 1, 3 and 5 by incubating 10 μl WST-1 (Roche Applied Science, Mannheim, Germany) in the culture medium for 1 h and reading the absorbance at 450 and 630 nm. The cell proliferation rate was calculated by […]. Experiments for the cell proliferation assay were performed at least three times.

[1] = test system: Colon cancer stem cells, i.e., CD133^+HICD44^+HI cells; experiment: Colon cancer stem cell tumor xenograft in NOD/SCID mice; assay type: in vivo
Method: FIG. 3. miR-129 suppresses colorectal cancer cell growth and induces cell cycle arrest. (a) HCT116, […] and SW480 cells were transfected with either miR-129 or negative miRNA, and cell numbers were measured with WST-1 assay at days 1, 3 and 5. Cell cycle analysis was performed to determine the impact of miR-129. The representative flow cytometry pattern was shown in (b) and the G1/S and G2/S ratios were shown in (c) (n=3). (d) Colon cancer stem cells, i.e., CD133^+HICD44^+HI cells were subcutaneously injected into NOD/SCID mice (1×10^4 cells). Mice were treated with either (top left) control lentiviral GFP vector and lentiviral miR-129 expressing construct (n=5) or (top right) mice were injected with negative miRNA (n=5) or miR-129 precursor (n=5) at 1.25 nmol per injection. Tumor sizes were then analyzed 7 weeks after initial treatment (lentiviral or injection). […] Scale bar: 1 cm. (bottom left) Quantitative analysis of colon cancer stem cells in tumor xenografts transfected with lentiviral miR-129 or control constructs reveal a significant reduction in tumor size. (bottom right) Quantitative analysis of colon cancer stem cells in tumor xenografts transfected with control and miR-129 precursor RNA.

TS = experiment: Western immunoblot analysis of TS protein in HCT116 cells; assay type: cell-based, human; conditions: HCT116 cells with ectopic expression of miR-129
Method: as §1
(§2) Forty-eight hours after transfection, cells were lysed with RIPA buffer (Sigma-Aldrich), and Western immunoblotting was performed using standard procedures. The primary antibodies used for the analysis were mouse anti-human BCL2 antibody (1:200; Thermo Fisher Scientific, Fremont, Calif., USA), rabbit anti-human cleaved caspase-3 antibody (1:200; Cell Signaling Technology, Beverly, Mass., USA), rabbit anti-human cleaved caspase-9 antibody (1:200; Cell Signaling Technology), mouse anti-human E2F3 antibody (1:5000; Millipore, Billerica, Mass., USA), mouse anti-human TS antibody (1:400; Millipore), mouse anti-human GAPDH antibody (1:1000, Santa Cruz Biotechnology, Santa Cruz, Calif., USA) or mouse anti-human α-tubulin antibody (1:1000; Millipore). […] HRP activity was detected with SuperSignal West Pico Chemiluminescent Substrate (Thermo Fisher Scientific) and visualized in an UVP Bioimaging system.

E2F3 = experiment: Western immunoblot analysis of E2F3 protein in HCT116 cells; assay type: cell-based, human; conditions: HCT116 cells after miR-129 transfection
Method: as §1, §2

[2] = set-up: species or system NOD/SCID mice; conditions: mouse, in vivo
Method: When solid and palpable tumors with an average volume of 100-150 mm^3 were formed (at day 14), mice were randomly separated into four groups such that each group was treated either with negative control miRNA, miR-129 alone, 5-FU alone or miR-129 and 5-FU together. The miRNAs were complexed with siPORTamine and injected intratumorally while 5-FU (50 μg g^−1) was injected systemically via the tail vein. All injections were provided in 3-day intervals for a total of three times before the tumors were collected at day 24. […] Importantly, despite the overexpression, the expression levels of miR-129 copy number remained within the physiological range (less than 20 copies/cell based on cycle threshold value at 30, which is equal to the expression of miR-129 in normal colon mucosa). Moreover, the control tumor xenografts had no miR-129 expression (cycle threshold value at 35). […]
The miR-129 specific primer and the internal control RNU44 gene were purchased from Ambion. cDNA synthesis was performed by the High Capacity cDNA Synthesis Kit (Applied Biosystems, CA, USA) with miRNA specific primers. […] Expression level of miR-129 was calculated by the ΔΔCT method based on the internal control RNU44, normalized to the control group and plotted as relative quantification (RQ).

miR-129: nucleic acid having a sequence of CUUUUUGCGGUCUGGGCUUGC (SEQ ID NO. 1); miR-129 precursor from Ambion used (chemistry not given here; listed as Homo sapiens)
firefly luciferase activity of pMIR-REPORT-3′-UTR-BCL2 (wild-type) (3′-UTR of BCL2 mRNA): significantly inhibited the luciferase activity | luciferase activity of reporter with 3′-UTR of BCL2 with three point mutations in the miR-129 binding site (mutant) (3′-UTR of BCL2 mRNA): did not inhibit the luciferase activity | cell proliferation reduced compared to negative controls (HCT116 cells): 41.2% | tumor size ([1]; delivery via lentiviral miR-129 expressing construct vs control lentiviral GFP vector, 7 weeks): reduces tumor size significantly | tumor size ([1]; injection of miR-129 precursor at 1.25 nmol per injection vs negative miRNA, 7 weeks after initial treatment): reduces tumor size significantly | TS protein expression (TS): suppressed the protein expression of TS | E2F3 protein levels (E2F3): reduce E2F3 protein levels | miR-129 copy number in injected tumors [2]: less than 20 copies/cell
